These results are taken from patent publication US20150004620A1, “METHOD OR DEVICE FOR IDENTIFYING INHIBITOR OF EPITHELIAL MESENCHYMAL TRANSITION” (Agency for Science, Technology and Research, priority 2011, published 2015).

Holding throughout (assay type): cell-based
In one assay the test system is E-cadherin. Description: Western blot of EMT marker E-cadherin in growth factor-treated NBT-II cells. As to conditions: NBT-II cells, 0.5, 2 and 8 μM compound overnight, then EGF, HGF or IGF-1 for 24 h (FIG. 7). The procedure:
NBT-II cells were treated with compounds at 0.5, 2 and 8 μM overnight and incubated with a growth factor for 24 h. Cells were lysed with protease/phosphatase inhibitor-containing RIPA buffer. Proteins are separated in 8% polyacrylamide gels and transferred to PDVF membranes. Membranes were blocked in 5% BSA and incubated at 4° C. overnight with MMP-13 (Millipore), E-cadherin (BD) and α-tubulin (Sigma) primary antibodies. Membranes were then developed with HRP-conjugated secondary antibody (Amersham) and ECL substrate (Millipore).
The possibilities that ALK5, MEK, PI3K and SRC targeting compounds could modulate the expression of EMT markers, such as E-cadherin and matrix metalloproteinase-13 (MMP-13) under EMT-activated conditions were also investigated (FIG. 7). With the exception of P13K inhibitor GDC-0941, the compounds in general abrogated MMP-13 expression in growth factor-treated samples, PI3K inhibition has been previously shown to augment MMP-13 expression. […] These findings are consistent with previous reports showing that ALK5, MEK and SRC play a role in cell motility and tumor progression, while PI3K predominately regulates cell proliferation.
(In general: Immunoblotting shows a protein as a band on a membrane.)

The subject of assay [1] is HGF-induced EMT in NBT-II cells. In words: EMT spot migration assay, HGF-induced. As to conditions: for IC50: HGF-induced EMT (4 ng/ml HGF), CDR dose response from 6.67 μM, read-out: Cell Dispersion IC 50, HGF. The procedure:
(§1) NBT-II cells were stably transfected with mcherry-fluorescent H2B and maintained in DMEM supplemented with 10% fetal bovine serum (FBS, Thermo Scientific), 1 μg/ml puromycin (Sigma) and 100 units/ml penicillin-streptomycin (1× pen-strep, Invitrogen). Cells were grown to 80% confluency in tissue culture flasks prior to plating. Cells were trypsinized and concentrated to a density of 5×10^6 cell/ml in CO2-independent medium (Invitrogen) supplemented with 10% FBS. The cell suspension was then evenly dispersed into the wells of two columns of a 96-well V-bottom plate. Using a robotic liquid-handling station (Bravo, Agilent Technologies), 0.5 μl of cell suspension was transferred from the two columns of the cell suspension-loaded plate and deposited into the center of the wells of two columns of a 96-well clear bottom, black assay plate (Corning). This process was repeated six times so that all 96 wells of the assay plate were deposited with a cell suspension spot. The plate was then sealed to minimize evaporation of the cell suspension spots and transferred to a 37° C., 5% CO2 incubator to allow for cells to attach to the culture surface. After 1 hour, the plate was gently washed with medium once to remove unattached cells, refreshed with 100 μl of assay medium (DMEM supplemented with 10% FBS and 1× pen-strep), and then further incubated to allow for cell-cell contacts to establish in the cell colonies.
(§2) Four tiled, non-overlapping images were acquired around the center of each well, and were then stitched together during image analysis to generate a montage covering an area of 3.2 mm×3.2 mm. These images (T1) represent the initial state of the cell colonies before EMT induction.
(§3) After the T1 images were acquired, 1 μl of test compounds were transferred from compound stock plates and added to the assay plates. Appropriate negative controls (1 μl DMSO) and positive controls (1 μl 1.0 mM compound in DMSO) were also added into columns 1 and 12 of each assay plate, respectively. […] The cultures were then further incubated overnight.
(§4) The next day, 50 μl of growth factor-containing medium was added to each well of the assay-plates. For each of the growth factor-induced EMT spot migration assays, the final growth factor concentrations in each well is optimized to be 20 ng/ml EGF (Sigma), 4 ng/ml HGF (Calbiochem) or 150 ng/ml IGF-1 (R&D Systems), respectively. The cultures were then incubated for another 24 hours, to allow for EMT and sufficient cell motility/dispersion to occur in the cell colonies.
(§5) Finally, the cell colonies were imaged again using the microplate imager, as described above. These images (T2) represent the final state of the cell colonies after compound treatment and EMT induction. The acquired T1 and T2 image sets for each assay plate were then sent for image analysis.
(§6) The acquisition of each well was obtained by four adjacent field images with no interstice in between. Each field image was loaded and nuclei were initially segmented independently of other fields to prevent artifact at the field border. Nuclei segmentation was achieved by combining a wavelet transform which is robust to noise and unhomogeneous background, and a watershed algorithm based on intensities to split nuclei clusters. Mask of nuclei segmentation of the different fields were then stitched together in order to obtain a large segmentation of the whole well. Cell bodies were estimated by applying a morphological dilation on the nucleus segmentation using a disk of 30 pixels (48 μm) in diameter. In cells that are contiguous, such as in a cell colony, nuclei segmentation dilation will result in the formation of continuous region areas with surrounding cells which can then be identified as colonies.
(§7) Total cell number and spreading coefficient values for each well were then exported into an Excel sheet.

Assay [2] deals with EGF-induced EMT in NBT-II cells. In words: EMT spot migration assay, EGF-induced. To be noted: for IC50: read-out: Cell Dispersion IC 50, EGF; for Cell dispersion pattern at T2 (FIG. 1D): 6.67 μM compound and EGF. As to the method:
as §1, §2, §3, §4, §5, §6, §7

The subject of assay [3] is IGF-1-induced EMT in NBT-II cells. In words: EMT spot migration assay, IGF-1-induced. As to conditions: IGF-1-induced EMT (150 ng/ml IGF-1), CDR dose response from 6.67 μM, read-out: Cell Dispersion IC 50, IGF-1. The procedure: as §1, §2, §3, §4, §5, §6, §7
Another assay has as its system MMP-13. In words: Western blot of EMT marker MMP-13 in growth factor-treated NBT-II cells. As to conditions: NBT-II cells, 0.5, 2 and 8 μM compound overnight, then growth factor for 24 h (FIG. 7).
[4] abbreviates: EGF-induced EMT (20 ng/ml EGF), NBT-II cells, CDR dose response from 6.67 μM.

Like-named read-outs stand apart in the source and are kept apart here.

Turning to `Cc1cccc(-c2nn(C(=S)Nc3ccccc3)cc2-c2ccnc3ccccc23)n1` [A83-01], the E-cadherin expression entry with E-cadherin is given as “restored the E-cadherin protein levels”. Besides, the IC50 in assay [1] was found to be 0.13 µM; in assay [2] (setting [4]), 0.069 µM; in assay [3] it was 0.12 µM.

For the compound `COc1cc2ncnc(Nc3cccc(Cl)c3)c2cc1OC` [AG1478], the results for the IC50 in assay [1], in assay [2] (setting [4]) and in assay [3] were above 5 µM, 0.33 µM and above 5 µM, respectively.

For `Cn1cnc2c(F)c(Nc3ccc(Br)cc3Cl)c(C(=O)NOCCO)cc21` [AZD6244], the IC50 in assay [1] stood at 0.79 µM; in assay [2] (setting [4]), 0.84 µM; in assay [3], 0.88 µM.

`Cc1cc(N2CCOCC2)cc2[nH]c(-c3c(NC[C@@H](O)c4cccc(Cl)c4)cc[nH]c3=O)nc12` [BMS-536924]: the IC50 in assay [1] was 2.3 µM; in assay [2] (setting [4]), above 5 µM; in assay [3], 0.17 µM.

For `O=C(NOCC1CC1)c1ccc(F)c(F)c1Nc1ccc(I)cc1Cl` [CI-1040], the figures for the IC50 in assay [1], in assay [2] (setting [4]) and in assay [3] were 0.82 µM, 1 µM and 1.2 µM, respectively.

Turning to `NC(=O)c1ccc(-c2nc(-c3ccc4c(c3)OCCO4)c(-c3ccccn3)[nH]2)cc1` [D4476], the IC50 in assay [1] amounted to 1.4 µM; in assay [2] (setting [4]) it was 1.1 µM; in assay [3] it was 1.9 µM.

With `C#Cc1cccc(Nc2ncnc3cc(OCCOC)c(OCCOC)cc23)c1` [Erlotinib], the IC50 is above 5 µM in assay [1], 0.95 µM in assay [2] and above 5 µM in assay [3].

Regarding `CS(=O)(=O)N1CCN(Cc2cc3nc(-c4cccc5[nH]ncc45)nc(N4CCOCC4)c3s2)CC1` [GDC-0941], in the assay on E-cadherin, the E-cadherin expression result is given as “restored the E-cadherin protein levels”. In addition, the values for the IC50 in assay [1], in assay [2] (setting [4]) and in assay [3] were 0.38 µM, 0.74 µM and 0.5 µM, respectively. For the same compound, in the assay on MMP-13, the MMP-13 expression result was “exception”.

For `Cn1cc(-c2ccc3nnc(C(F)(F)c4ccc5ncccc5c4)n3n2)cn1` [JNJ-38877605], the values for the IC50 in assay [1], in assay [2] (setting [4]) and in assay [3] were 0.094 µM, above 5 µM and above 5 µM, respectively.

Turning to `c1ccc(-c2[nH]ncc2-c2ccnc3ccccc23)nc1` [LY-364947], the IC50 in assay [1] was 0.18 µM; in assay [2] (setting [4]), 0.14 µM; in assay [3], 0.24 µM.

In the case of `CS(=O)(=O)CCNCc1ccc(-c2ccc3ncnc(Nc4ccc(OCc5cccc(F)c5)c(Cl)c4)c3c2)o1` [Lapatinib], the figures for the IC50 in assay [1], in assay [2] (setting [4]) and in assay [3] were above 5 µM, 0.62 µM and above 5 µM, respectively.

As to `COc1cc2ncnc(Nc3cccc(Br)c3)c2cc1OC` [PD153035], the values for the IC50 in assay [1], in assay [2] (setting [4]) and in assay [3] were above 5 µM, 0.55 µM and above 5 µM, respectively. Further, the “Cell dispersion pattern at T2 (FIG. 1D)” value in assay [2] (NBT-II cells) is “pattern of inhibition”.

Turning to `CNc1cc2c(Nc3cccc(Br)c3)ncnc2cn1` [PD158780], the IC50 in assay [1] was above 5 µM; in assay [2] (setting [4]) it was 1.2 µM; in assay [3] it was above 5 µM.

For `O=C(NOC[C@H](O)CO)c1ccc(F)c(F)c1Nc1ccc(I)cc1F` [PD0325901], the E-cadherin expression entry in the assay on E-cadherin is recorded as “augment E-cadherin expression”. Besides, the IC50 in assay [1] came out at 0.02 µM; in assay [2] (setting [4]) it was 0.031 µM; in assay [3], 0.0089 µM.

Consider `OCCn1cc(-c2cnc3nnn(Cc4ccc5ncccc5c4)c3n2)cn1` [PF-04217903], for which the figures for the IC50 in assay [1], in assay [2] (setting [4]) and in assay [3] were 0.055 µM, above 5 µM and above 5 µM, respectively. The “Inhibition of HGF-induced EMT (growth factor specificity)” value in assay [1] (spot migration assay) is “specifically inhibited HGF-induced EMT”.

Consider `Oc1cccc(-c2nc(N3CCOCC3)c3oc4ncccc4c3n2)c1` [PI-103], for which the IC50 in assay [1] came out at 0.38 µM; in assay [2] (setting [4]), 0.68 µM; in assay [3], 0.4 µM.

In the case of `COc1ccc2c(c1OC)N=C(NC(=O)c1cccnc1)N1CCN=C21` [PIK-90], the IC50 in assay [1] amounted to 0.4 µM; in assay [2] (setting [4]) it was 0.95 µM; in assay [3], 0.62 µM.

On to `Cc1ccc(-c2nn(C(C)(C)C)c3ncnc(N)c23)cc1` [PP1], for which the results for the IC50 in assay [1], in assay [2] (setting [4]) and in assay [3] were 2 µM, 2.3 µM and 1.2 µM, respectively. The “Cell dispersion pattern at T2 (FIG. 1D)” value in assay [2] (NBT-II cells) is reported as “pattern of inhibition”.

`NC(=O)c1ccc(-c2nc(-c3ccc4c(c3)OCO4)c(-c3ccccn3)[nH]2)cc1` [SB-431542]: the figures for the IC50 in assay [1], in assay [2] (setting [4]) and in assay [3] were 0.94 µM, 1.6 µM and 0.82 µM, respectively.

For `Fc1ccc(Cl)cc1-c1nc(Nc2ccncc2)c2nccnc2n1` [SD-208], the IC50 in assay [1] was determined as 0.11 µM; in assay [2] (setting [4]), 0.085 µM; in assay [3] it was 0.15 µM.

Regarding `COc1cc2ncnc(Nc3ccc(O)c(Br)c3)c2cc1OC` [WHI-P154], the IC50 is above 5 µM in assay [1], 0.8 µM in assay [2] (setting [4]) and above 5 µM in assay [3].

For the compound `FC(F)c1nc2ccccc2n1-c1nc(N2CCOCC2)nc(N2CCOCC2)n1` [ZSTK474], the results for the IC50 in assay [1], in assay [2] (setting [4]) and in assay [3] were 0.41 µM, 0.85 µM and 0.66 µM, respectively.
